Tests used:
[1] = Moisture absorption measurement in a Constant Temperature & Humidity Chamber; type: physicochemical; conditions: for Moisture absorption rate, % / Weight gain after moisture absorption: after 5 days; for Weight gain after moisture absorption: about 1 g sample; for Appearance before experiment: before placing in chamber, open glass culture dish
Experimental: On the day before the constant temperature and moisture test, two dry glass culture dishes (without covers) are taken and placed in a Constant Temperature & Humidity Chamber at 25±1° C. and relative humidity of 75±2% for 4 h. The processed dishes are taken out and weighed accurately. The experiment is repeated until the weight is constant, and the data is recorded in Table 3.
Step 2. The raw material LNTII solid amorphous powder and the crystalline form B of LNTII obtained from Example 1 are weighed separately, placed in a glass culture dish without cover with constant weight in Step 1. The culture dish with samples added are placed in a Constant Temperature & Humidity Chamber at 25° C. and relative humidity of 75%. After 5 days, the samples are taken out to observe the appearance changes, weigh, and calculate the moisture absorption. The results are recorded in Table 2 and Table 3, respectively. The results of samples morphology before and after moisture absorption are shown in FIG. 5 and FIG. 6, respectively.
According to the method described herein in Example 9, the crystalline form B of LNTII prepared according to Examples 1-8 is placed in a glass culture dish without cover with constant weight in Step 1. The culture dish with samples added are placed in a Constant Temperature & Humidity Chamber at 25° C. and relative humidity of 75%. After 5 days, the samples are taken out to observe the appearance changes, weigh, and calculate the moisture absorption.

[2] = Stability study in a Constant Temperature & Humidity Chamber (LNTII content by HPLC and appearance); type: physicochemical; conditions: for Content, % (At the end of the 1st month): sealed with aluminum compound packing film; for Content, % (At the end of the 1st month) / Appearance (At the end of the 1st month): 1 month; for Appearance (At the end of the 1st month) / Content, % (At the end of the 2nd month) / Appearance (At the end of the 3rd month) / Content, % (At the end of the 3rd month): sealed; for Content, % (At the end of the 2nd month): 2 months; for Content, % (Day 0): LNTII content by HPLC
Experimental: In this invention, high-performance liquid chromatography (HPLC) is used to detect the content of LNTII under the following detection conditions:
Chromatographic column: Asahipak NH2P-504E 4.6 mm×250 mm, 5 μm, mobile phase: acetonitrile: water=65:35, flow rate: 1 mL/min, detector: UV-VIS detector, wavelength: 210 nm, column temperature: 30° C., sample volume: 10 μL, and the running time of 30 min.
An amount of 10 g of raw material before crystallization (i.e. LNTII amorphous powder obtained by spray-drying) and 10 g of crystalline form B of LNTII prepared by the method described herein in Examples 1-8 are weighed respectively, sealed with aluminum compound packing film, and placed in a Constant Temperature & Humidity Chamber under the test conditions of at constant temperature of 40° C. and relative humidity of 75%. Samples are taken at the end of the 1st month, the 2nd month, and the 3rd month to test the content of LNTII and observe its appearance.

[3] = 25° C., relative humidity 75%, Table 4, Examples 1-8
[4] = 40° C., relative humidity 75%, 3 months
[5] = 25° C., relative humidity 75%, Table 3, (weight gain/sample weight) × 100%

SMILES	Moisture absorption rate, % [1, 3]	Content, % (At the end of the 1st month) ([2]; 40° C., relative humidity 75%)	Appearance (At the end of the 1st month) ([2]; 40° C., relative humidity 75%)	Content, % (At the end of the 2nd month) ([2]; 40° C., relative humidity 75%)	Appearance (At the end of the 3rd month) [2, 4]	Content, % (At the end of the 3rd month) [2, 4]	Content, % (Day 0) [2]	Stability compared with amorphous powder (from appearance and moisture absorption) ([1]; 25° C., relative humidity 75%, 5 days, conclusion from Tables 2 and 3)	Moisture absorption rate, % [1, 5]	Weight gain after moisture absorption ([1]; 25° C., relative humidity 75%)	Appearance before experiment [1]	Change of LNTII content during the stability experiment [2, 4]	Change of appearance/color during the stability experiment [2, 4]
CC(=O)NC1C(O)[C@H](O)C(CO)O[C@H]1OC1C(O)[C@H](O[C@@H]2C(CO)OC(O)C(O)C2O)OC(CO)[C@@H]1O (single isomer, unassigned) [Crystalline form B in Example 4, Lacto-N-triose II]	13.81%	96.13%	Off-white	96.06%	Off-white	96.07%	96.1%	–	–	–	–	–	–
CC(=O)NC1C(O)[C@H](O)C(CO)O[C@H]1OC1C(O)[C@H](O[C@@H]2C(CO)OC(O)C(O)C2O)OC(CO)[C@@H]1O (single isomer, unassigned) [Crystalline form B in Example 5, Lacto-N-triose II]	13.79%	93.56%	Off-white	93.48%	Off-white	93.34%	93.4%	–	–	–	–	–	–
CC(=O)NC1C(O)[C@H](O)C(CO)O[C@H]1OC1C(O)[C@H](O[C@@H]2C(CO)OC(O)C(O)C2O)OC(CO)[C@@H]1O (single isomer, unassigned) [Crystalline form B in Example 3, Lacto-N-triose II]	13.57%	96.92%	Off-white	96.93%	Off-white	96.84%	96.9%	–	–	–	–	–	–
CC(=O)NC1C(O)[C@H](O)C(CO)O[C@H]1OC1C(O)[C@H](O[C@@H]2C(CO)OC(O)C(O)C2O)OC(CO)[C@@H]1O (single isomer, unassigned) [Crystalline form B in Example 7, Lacto-N-triose II]	13.04%	93.77%	Off-white	93.81%	Off-white	93.75%	93.8%	–	–	–	–	–	–
CC(=O)NC1C(O)[C@H](O)C(CO)O[C@H]1OC1C(O)[C@H](O[C@@H]2C(CO)OC(O)C(O)C2O)OC(CO)[C@@H]1O (single isomer, unassigned) [Crystalline form B in Example 2, Lacto-N-triose II]	14.36%	96.44%	Off-white	96.42%	Off-white	96.38%	96.5%	–	–	–	–	–	–
CC(=O)NC1C(O)[C@H](O)C(CO)O[C@H]1OC1C(O)[C@H](O[C@@H]2C(CO)OC(O)C(O)C2O)OC(CO)[C@@H]1O (single isomer, unassigned) [Crystalline form B in Example 8, Lacto-N-triose II]	13.61%	96.48%	Off-white	96.49%	Off-white	96.46%	96.5%	–	–	–	–	–	–
CC(=O)NC1C(O)[C@H](O)C(CO)O[C@H]1OC1C(O)[C@H](O[C@@H]2C(CO)OC(O)C(O)C2O)OC(CO)[C@@H]1O (stereo partly shown) [Crystalline form B of LNTII, Lacto-N-triose II]	–	–	–	–	–	–	–	better than that of amorphous powder	16.16%	0.1617	Off-white	–	–
CC(=O)NC1C(O)[C@H](O)C(CO)O[C@H]1OC1C(O)[C@H](O[C@@H]2C(CO)OC(O)C(O)C2O)OC(CO)[C@@H]1O (single isomer, unassigned) [Crystalline form B in Example 6, Lacto-N-triose II]	13.32%	92.43%	Off-white	92.39%	Off-white	92.31%	92.4%	–	–	–	–	–	–
CC(=O)NC1C(O)[C@H](O)C(CO)O[C@H]1OC1C(O)[C@H](O[C@@H]2C(CO)OC(O)C(O)C2O)OC(CO)[C@@H]1O (single isomer, unassigned) [Crystalline form B in Example 1, Lacto-N-triose II]	14.02%	96.81%	Off-white	96.78%	Off-white	96.76%	96.8%	–	–	–	–	–	–
CC(=O)NC1C(O)[C@H](O)C(CO)O[C@H]1OC1C(O)[C@H](O[C@@H]2C(CO)OC(O)C(O)C2O)OC(CO)[C@@H]1O (stereo partly shown) [LNTII amorphous powder, Lacto-N-triose II, reference compound]	–	91.01%	Off-white	90.86%	–	90.01%	91.24%	–	29.47%	0.2951	Off-white powder	showed a decreasing trend	gradually changed to faint yellow

From patent US20250333431A1, “NEW CRYSTAL FORM OF TRISACCHARIDE” (SHANDONG HENGLU BIOTECH. CO., LTD., priority 2022, published 2025)
